The source of these data is patent US9309247B2, “2-substituted imidazo[4,5-D]phenanthroline derivatives and their use in the treatment of cancer” (Aptose Biosciences Inc., priority 2013, dated 2016).

For assay [1], the system named is human renal cancer cells ACHN. The experiment in a line: XTT cell proliferation assay, ACHN. In kind it is cell-based. The following applies: 5 days incubation, read-out: Antiproliferative activity, Kidney ACHN. Here is the method: (§1) Exemplary compounds 1-8 were tested for anti-cancer activity in vitro using human renal cancer cells (ACHN and CAK-1), human pancreatic cells (BXPC3 and SU-86-86), human prostate cancer cell (DU14), human colon carcinoma cells (HT-29 and KM-12), leukemia cells (HL60), brain cancer/tumour cells (SK-A-AS, U87-MG), and human non-small cell lung cancer cells (H460). Compounds 1-8 are the specific embodiments of Formula (I) and Formula (IV) as described above in this application.
(§2) The cells were maintained as a monolayer in a growth medium; McCoy's 5A modified medium (Sigma, St. Louis, Mo.), supplemented with 2 mM L-glutamine (Gibco, Grand Island, N.Y.), 10% fetal bovine serum (FBS) (Multicell, WISENT Inc. St-Bruno, QC), antibiotic-antimycotic (Multicell), at 37° C. in a 5% CO2-humidified incubator. Cells were transferred onto 150 mm tissue culture plates and grown until sub-confluency (70-80%) prior to their use. The in vitro antiproliferative activity of compounds was evaluated by incubating the cells with varying concentrations of exemplary compounds as shown in Table 1 for 5 days. The efficacy of these compounds in this cell proliferation assay was measured based in the ability of live cells to reduce the tetrazolium salt XTT to orange colored compounds of formazan (XTT cell proliferation kit IT, Roche Applied Science, Montreal, QC).

The subject of assay [2] is non-small cell lung cancer cells H226. The experiment in a line: XTT cell proliferation assay, H226. The format is cell-based, human. The conditions noted are these: 5 days incubation, read-out: Antiproliferative activity, NSCLC H226. Here is the method:
[The procedure below names another cell line; the source lists this cell line under the same test.] as §1, §2

Assay [3] has as its system leukemia cells HL60. The experiment in a line: XTT cell proliferation assay, HL60. The conditions noted are these: 5 days incubation, read-out: Antiproliferative activity, Leuk. HL60. The format is cell-based, human. Here is the method: as §1, §2
The subject of assay [4] is human pancreatic cells SU-86-86. The experiment in a line: XTT cell proliferation assay, SU-86-86. The format is cell-based. The conditions noted are these: 5 days incubation, read-out: Antiproliferative activity, Pancreas SU-86-86. Here is the method:
as §1, §2

Assay [5] has as its system human colon carcinoma cells HT-29. The experiment in a line: XTT cell proliferation assay, HT-29. The following applies: 5 days incubation, read-out: Antiproliferative activity, Colon HT-29. The format is cell-based. Here is the method: as §1, §2
In assay [6] the test system is colon carcinoma SW-620 cells. The experiment in a line: Colon carcinoma (SW-620) xenograft model. The format is in vivo, CD-1 female nude mice. The following applies: vs vehicle-treated control, FIG. 3. Here is the method:
(§3) The ability of compound 1 to inhibit colon tumour growth in vivo was tested as follows. CD-1 female nude mice (7 mice per treatment group, 6-7 weeks) were injected […] with human colon adenocarcinoma cells HT-29 cells (3×10^6 cells in 0.1 ml PBS). Treatment of the mice with vehicle or 50 mg/kg/d of […] was initiated 5 days post-inoculation (size of tumours=20-40 mm^3) for 7-day cycles of five days followed by a 2 day break for 5 weeks. The size of the tumours was measured over the course of the experiment using calipers, and the weight of the tumours was measured after the animals were sacrificed.
Similar tests were conducted with colon carcinoma KM-12 cells and colon carcinoma SW-620 cells.

Assay [7] deals with non-small cell lung cancer cells HOP-92. The experiment in a line: XTT cell proliferation assay, HOP-92. In kind it is cell-based, human. The following applies: 5 days incubation, read-out: Antiproliferative activity, NSCLC HOP-92. Here is the method:
[The procedure below names another cell line; the source lists this cell line under the same test.] as §1, §2

Assay [8] relates to human pancreatic cells BXPC3. The experiment in a line: XTT cell proliferation assay, BXPC3. In kind it is cell-based. The following applies: 5 days incubation, read-out: Antiproliferative activity, Pancreas BXPC3. Here is the method: as §1, §2
Assay [9] concerns EL4 (mouse, lymphoma). The experiment in a line: Cell growth inhibition assay, EL4. The format is cell-based. The following applies: five days of incubation, XTT; read-out: IC50 EL4 (ms). Here is the method: In this study, compounds 1-8 were screened in vitro against a panel of four mouse lymphoma cell lines and two human lymphoma cell line for cell growth inhibition activity. Following treatment, half maximal inhibitory concentrations (IC50) were determined with the objective of selecting the most efficacious compounds for evaluation of in vitro absorption, distribution, metabolism, and excretion (ADME) screening.
Similarly, human Burkitt's lymphoma Ramos cells (ATCC CRL-1596) were grown in suspension in Roswell Park Memorial Institute (RPMI) 1640 medium supplemented with 10% fetal bovine serum (FBS), 10 mM HEPES KOH pH 7.4, and 2 mM sodium pyruvate. Mouse P388D1 (ATCC CCL-46) and WR19L (ATCC TIB-52) cells were grown in suspension in Dulbecco's Modified Eagle Medium (DMEM) with 10% fetal bovine serum (FBS), 10 mM HEPES, and 2 mM sodium pyruvate. Mouse WEHI231 (ATCC CRL-1702) and EL4 (ATCC TIB-39) cells were grown in suspension in DMEM with 10% fetal bovine serum (FBS), 10 mM HEPES KOH pH 7.4, 2 mM sodium pyruvate, and 0.05 mM β-mercaptoethanol. All cells were maintained at 37° C. in an atmosphere of 5% CO2 in air. Logarithmically growing cells were routinely sub-cultured twice weekly. Briefly, cells were collected by centrifugation, resuspended in pre-warmed media, and diluted 1:10 into a 75 cm^2 flask.
Cells were subcultured and 4×10^3 cells (in 50 μL) were transferred to each well in a Falcon 96-well tissue culture plate. Exemplary compounds were dissolved in pure dimethyl sulphoxide (DMSO) at a concentration of 10 mM. From this 10 mM stock solution, 12 successive serial dilutions were made in DMSO (2.5 fold dilutions), ranging from 0.52 μM to 10 mM. Using these stock dilutions, 5 μL of each were added to 500 μL of media, and 50 μL of this was added to the cells. The final concentrations being tested ranged from 0.0026 μM to 50 μM. Each concentration was tested in triplicate, and DMSO and untreated cells were also included as controls. After five days of incubation with the compounds, cell viability was determined using the XTT cell proliferation kit (Roche, Cat. No. 11 465 015 001). Following the XTT protocol, 4.5-24 hours after addition of the reagent, the plates were read in a μQuant 96-well plate spectrophotometer (Biotek Instruments Inc.) and the results analyzed to determine the IC50.

Assay [10] deals with brain cancer/tumour cells U87-MG. The experiment in a line: XTT cell proliferation assay, U87-MG. In kind it is cell-based, human. The following applies: 5 days incubation, read-out: Antiproliferative activity, Brain U87-MG. Here is the method: as §1, §2
The test system of assay [11] is human colon carcinoma cells KM12. The experiment in a line: XTT cell proliferation assay, KM12. In kind it is cell-based. The following applies: 5 days incubation, read-out: Antiproliferative activity, Colon KM12. Here is the method:
as §1, §2

The test system of assay [12] is non small cell lung cancer (H460). The experiment in a line: Non small cell lung cancer (H460) xenograft model. The format is in vivo, CD-1 female nude mice. The conditions noted are these: large-cell lung carcinoma H460; vs vehicle-treated control; FIG. 6. Here is the method:
as §3
The ability of compound 1 to inhibit renal cell carcinoma growth (see FIG. 4), to inhibit pancreatic carcinoma growth (FIG. 5), to inhibit large-cell lung carcinoma cell growth (FIG. 6), and to inhibit Glioblastoma cell growth (FIG. 7) was also tested following the general procedure as discussed above.

Regarding `FC1(F)Oc2ccc(-c3nc4c5cccnc5c5ncccc5c4[nH]3)cc2O1` [Compound 1], the IC50 was determined as 170 nM in [1]; 410 nM in assay [2]; 30 nM in assay [3]; 180 nM in assay [4]; 350 nM in assay [5]; 160 nM in [7]. For the same compound, the IC50 came to 180 nM in [8], 483 nM in assay [9], 190 nM in assay [10] and 330 nM in assay [11]. Also, the “inhibition of tumour growth, as measured by tumour size” value in assay [6] and in assay [12] was “able to inhibit tumour growth” in each case.
